Experimental data taken from US20220347171A1, “TREATMENT OF PRURIGO NODULARIS” (TREVI THERAPEUTICS, INC., priority 2016, published 2022).
Counter-ions that a name gives are not always drawn.

What was measured:
[1] = system: prurigo nodularis patients; experiment: TR03ext (Example 3): Prurigo Activity Score (PAS) healed lesions; Stage 0 100% healed, Stage 1 75%-99%, Stage 2 50%-74%, Stage 3 25%-49%, Stage 4 0-24% healed; type: in vivo, human
Excerpt: In some embodiments, after the treatment the patient experiences a substantial reduction of itch that is characterized by at least one category/stage improvement in Prurigo Activity Score (PAS). In particular embodiments, after the treatment the patient experiences a reduction of itch that results in at least one category/stage improvement in Prurigo Activity Score (PAS) domains of number of prurigo lesions, prurigo lesions with excoriations/crusts and/or healed prurigo lesions. The PAS consists of 7 qualitative and quantitative measurements related to the examination of the skin. Type, number, distribution, affected body parts, and quantitative number of lesions in a representative body part are documented. The biggest lesion and the most representative lesion are monitored with documentation of height and area measurements. Prurigo lesion activity is recorded as a percentages based on their stage (0-4). In some embodiments, number measurements of lesions on the body have four numerical categories: 0, 1-19, 20-100 and >100. In some embodiments, prurigo lesions with excoriations/crusts have five categories: Stage 4 (76%-100%), Stage 3 (51%-75%), Stage 2 (26%-50%), Stage 1 (1-25%) and Stage 0 (0%). In some embodiments, healed prurigo lesions have five categories: Stage 4 (0-24%), Stage 3 (25-49%), Stage 2 (50-74%), Stage 1 (75%-99%), Stage 0 (100%).
This clinical study was a Phase 2 Open Label Extension Study (clinical study TR03ext) of the randomized, double-blind, 3-parallel arm, placebo controlled dose ranging study described in Example 2. All those subjects who were randomized, and then completed Example 2 study, were eligible to participate in the Extension Study.
The primary endpoint was a description of the overall incidence and nature of Treatment-Emergent AEs (TEAES) during weeks 5-50 of the study. Exploratory efficacy endpoints included Change from Baseline patient reported outcome measures of Worst itch NRS, itchy VRS and ItchyQoL, by Treatment Period study visit and Baseline NRS score. There was also an assessment of any potential skin lesion changes over time using the metrics of the PAS.
Patients in Extension Study were titrated over a dose range of 30 mg QD to 180 mg BID based on tolerability. The selected dose range was based on Example 2 study whereby patients were titrated from a 30 mg QD dose either to 30 mg BID, 60 mg BID, 90 mg BID, 120 mg BID or a 180 mg BID dose. The highest dose proposed was 180 mg BID (360 mg daily dose), and was well below the highest recommended daily treatment of 160 mg IV (equivalent to 960 mg oral) for the current marketed parenteral administered product.
Tables 12, 13 and 14 display healed lesion PAS data for subjects who received treatment for at least 6 months, subjects who received treatment for at least 9 months and subjects who completed 50 weeks of treatment in the study, respectively. The status of the healed lesion activity is reported as percentages based on their stage (0-4) using a grading system: Stage 0 (100% healed); Stage 1 (75%-99% healed); Stage 2 (50%-74% healed); Stage 3 (25%-49% healed); Stage 4: 0-24% healed. Thus the higher the stage, the […] the prurigo skin pathology.

[2] = injectable formulations (IV or IM or SC); cited from earlier work
[3] = treatment for at least 6 months
[4] = treatment for at least 9 months

Oc1ccc2c3c1OC1[C@@H](O)CC[C@@]4(O)[C@@H](C2)N(CC2CCC2)CC[C@]314 (stereo partly drawn) [Nalbuphine, 17-(cyclobutylmethyl)-4,5α-epoxymorphinian-3, 6α, 14-triol, hydrochloride]
Healed lesion PAS Category Shift: Baseline Stage 2 to Last Observed Stage 4 [1, 3]: 0 Number (%) of Subjects
Healed lesion PAS Category Shift: Baseline Stage 3 to Last Observed Stage 0 [1, 3]: 0 Number (%) of Subjects
Healed lesion PAS Category Shift: Baseline Stage 3 to Last Observed Stage 1 [1, 3]: 1 (5.9) Number (%) of Subjects
Healed lesion PAS Category Shift: Baseline Stage 3 to Last Observed Stage 2 [1, 3]: 0 Number (%) of Subjects
Healed lesion PAS Category Shift: Baseline Stage 3 to Last Observed Stage 3 [1, 3]: 2 (11.8) Number (%) of Subjects
Healed lesion PAS Category Shift: Baseline Stage 3 to Last Observed Stage 4 [1, 3]: 0 Number (%) of Subjects
Healed lesion PAS Category Shift: Baseline Stage 4 to Last Observed Stage 0 [1, 3]: 1 (5.9) Number (%) of Subjects
Healed lesion PAS Category Shift: Baseline Stage 4 to Last Observed Stage 1 [1, 3]: 2 (11.8) Number (%) of Subjects
Healed lesion PAS Category Shift: Baseline Stage 4 to Last Observed Stage 2 [1, 3]: 1 (5.9) Number (%) of Subjects
Healed lesion PAS Category Shift: Baseline Stage 4 to Last Observed Stage 3 [1, 3]: 1 (5.9) Number (%) of Subjects
Healed lesion PAS Category Shift: Baseline Stage 4 to Last Observed Stage 4 [1, 3]: 1 (5.9) Number (%) of Subjects
Healed lesion PAS: Last Observed PAS Result Stage 0 [1, 3]: 3 (17.6) Number (%) of Subjects
Healed lesion PAS: Last Observed PAS Result Stage 1 [1, 3]: 9 (52.9) Number (%) of Subjects
Healed lesion PAS: Last Observed PAS Result Stage 2 [1, 3]: 2 (11.8) Number (%) of Subjects
Healed lesion PAS: Last Observed PAS Result Stage 3 [1, 3]: 3 (17.6) Number (%) of Subjects
Healed lesion PAS: Last Observed PAS Result Stage 4 [1, 3]: 1 (5.9) Number (%) of Subjects
Healed lesion PAS Category Shift: Baseline Stage 0 to Last Observed Stage 0 [1, 4]: 1 (7.1%) Number (%) of Subjects
Healed lesion PAS Category Shift: Baseline Stage 0 to Last Observed Stage 1 [1, 4]: 0 Number (%) of Subjects
Healed lesion PAS Category Shift: Baseline Stage 0 to Last Observed Stage 2 [1, 4]: 0 Number (%) of Subjects
Healed lesion PAS Category Shift: Baseline Stage 0 to Last Observed Stage 3 [1, 4]: 0 Number (%) of Subjects
Healed lesion PAS Category Shift: Baseline Stage 0 to Last Observed Stage 4 [1, 4]: 0 Number (%) of Subjects
Healed lesion PAS Category Shift: Baseline Stage 1 to Last Observed Stage 0 [1, 4]: 0 Number (%) of Subjects
Healed lesion PAS Category Shift: Baseline Stage 1 to Last Observed Stage 1 [1, 4]: 2 (14.3) Number (%) of Subjects
Healed lesion PAS Category Shift: Baseline Stage 1 to Last Observed Stage 2 [1, 4]: 1 (7.1) Number (%) of Subjects
Healed lesion PAS Category Shift: Baseline Stage 1 to Last Observed Stage 3 [1, 4]: 0 Number (%) of Subjects
Healed lesion PAS Category Shift: Baseline Stage 1 to Last Observed Stage 4 [1, 4]: 0 Number (%) of Subjects
Healed lesion PAS Category Shift: Baseline Stage 2 to Last Observed Stage 0 [1, 4]: 0 Number (%) of Subjects
Healed lesion PAS Category Shift: Baseline Stage 2 to Last Observed Stage 1 [1, 4]: 3 (21.4) Number (%) of Subjects
Healed lesion PAS Category Shift: Baseline Stage 2 to Last Observed Stage 2 [1, 4]: 0 Number (%) of Subjects
Healed lesion PAS Category Shift: Baseline Stage 2 to Last Observed Stage 3 [1, 4]: 0 Number (%) of Subjects
Healed lesion PAS Category Shift: Baseline Stage 2 to Last Observed Stage 4 [1, 4]: 0 Number (%) of Subjects
Healed lesion PAS Category Shift: Baseline Stage 3 to Last Observed Stage 0 [1, 4]: 0 Number (%) of Subjects
Healed lesion PAS Category Shift: Baseline Stage 3 to Last Observed Stage 1 [1, 4]: 0 Number (%) of Subjects
Healed lesion PAS Category Shift: Baseline Stage 3 to Last Observed Stage 2 [1, 4]: 0 Number (%) of Subjects
Healed lesion PAS Category Shift: Baseline Stage 3 to Last Observed Stage 3 [1, 4]: 2 (14.3) Number (%) of Subjects
Healed lesion PAS Category Shift: Baseline Stage 3 to Last Observed Stage 4 [1, 4]: 0 Number (%) of Subjects
Healed lesion PAS Category Shift: Baseline Stage 4 to Last Observed Stage 0 [1, 4]: 1 (7.1) Number (%) of Subjects
Healed lesion PAS Category Shift: Baseline Stage 4 to Last Observed Stage 1 [1, 4]: 1 (7.1) Number (%) of Subjects
Healed lesion PAS Category Shift: Baseline Stage 4 to Last Observed Stage 2 [1, 4]: 1 (7.1) Number (%) of Subjects
Healed lesion PAS Category Shift: Baseline Stage 4 to Last Observed Stage 3 [1, 4]: 1 (7.1) Number (%) of Subjects
Healed lesion PAS Category Shift: Baseline Stage 4 to Last Observed Stage 4 [1, 4]: 1 (7.1) Number (%) of Subjects
Healed lesion PAS: Last Observed PAS Result Stage 0 [1, 4]: 2 (14.3) Number (%) of Subjects
Healed lesion PAS: Last Observed PAS Result Stage 1 [1, 4]: 6 (42.9) Number (%) of Subjects
Healed lesion PAS: Last Observed PAS Result Stage 2 [1, 4]: 2 (14.3) Number (%) of Subjects
Healed lesion PAS: Last Observed PAS Result Stage 3 [1, 4]: 3 (21.4) Number (%) of Subjects
Healed lesion PAS: Last Observed PAS Result Stage 4 [1, 4]: 1 (7.1) Number (%) of Subjects
half-life [2]: 2 to 3 h
